Experimental data published in patent US10052320B2, “Substituted quinoxalines as FGFR kinase inhibitors” (ASTEX THERAPEUTICS LIMITED, priority 2011, dated 2018).
Read-outs that look alike come from different tables or passages of the source.

Columns and labels:
[1] = molecular target: Ba/F3-FGFR3-transfected cells (Homo sapiens, UniProt P22607); assay: Ba/F3-FGFR3 (minus IL3) cellular proliferation assay, Alamar Blue; format: cell-based; details: for BAF3-FGFR 3 (MIN IL3) 96 well pIC50: minus IL3, 96 well; for BAF3-FGFR 3 (MIN IL3) 384 well pIC50: minus IL3, 384 well
Procedure, shortened: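 With or without 10 ng/ml murine IL3, transfected Ba/F3-FGFR3 cells in serum-containing RPMI-1640 receive compound for 24 h at 37 °C. Growth is then gauged by resazurin conversion over 4 h, read as relative fluorescence units.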

[2] = molecular target: Ba/F3-KDR-transfected cells (Homo sapiens, UniProt P35968); assay: Ba/F3-KDR (minus IL3) cellular proliferation assay, Alamar Blue; format: cell-based
Procedure, shortened: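 Measured with and without 10 ng/ml murine IL3: Ba/F3-KDR cells treated 24 h with compound, then 4 h Alamar Blue, fluorescence read at 540/590 nm.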

[3] = system: Ba/F3-Flt3-transfected cells in the presence of 10 ng/ml murine IL3; assay: Ba/F3-Flt3 (plus IL3) cellular proliferation counterscreen, Alamar Blue; format: cell-based; details: Mus musculus, read-out: BAF3-FLT3 (PLUS IL3) 96 well pIC50 (converted)
FGFR1 (h) = FGFR1 (h) (Homo sapiens, UniProt P11362); assay: FGFR1 (enzymatic assay), TR-FRET; format: biochemical; details: read-out: FGFR 1 pIC50 (converted)
Procedure: In a final reaction volume of 30 μL, FGFR1 (h) (25 ng/ml) was incubated with 50 mM HEPES pH 7.5, 6 mM MnCl2, 1 mM DTT, 0.1 mM Na3VO4, 0.01% Triton-X-100, 500 nM Btn-Flt3 and 5 μM ATP in the presence of compound (1% DMSO final). […] Time-Resolved Fluorescence Resonance Energy Transfer (TR-FRET) signal (ex340 nm. Em 620 nm, em 655 nm) was measured afterwards and results are expressed in RFU (Relative Fluorescence Units).

[4] = system: Ba/F3-KDR-transfected cells in the presence of 10 ng/ml murine IL3; assay: Ba/F3-KDR (plus IL3) cellular proliferation counterscreen, Alamar Blue; format: cell-based; details: Mus musculus, read-out: BAF3-KDR (PLUS IL3) 384 well pIC50; plus IL3, 384 well; read-out: BAF3-KDR (PLUS IL3) 284 well pIC50 (converted)
Procedure: Ba/F3-KDR (Minus IL3 or Plus IL3) (Cellular Proliferation Assay)
[…] Cells were put in an incubator at 37° C. and 5% CO2. After 24 hours, 10 μl of Alamar Blue solution (0.5 mM K3Fe(CN)6, 0.5 mM KaFe(CN)6, 0.15 mM Resazurin and 100 mM Phosphate Buffer) was added to the wells, incubated for 4 hours at 37° C. and 5% CO2 before RFU's (Relative Fluorescence Units) (ex. 540 nm., em. 590 nm.) were measured in a flurorescence plate reader.
As a counterscreen the same experiment was performed in the presence of 10 ng/ml murine IL3.
In a 96 well plate, 180 μl cell culture medium (phenol red free RPMI-1640, 10% FBS, 2 mM L-Glutamine and 50 μg/ml Gentamycin) containing 10000 cells per well of Ba/F3-KDR-transfected cells were pipette and 20 μl of compound dilution in DMSO was added. Cells were put in an incubator at 37° C. and 5% CO2. After 24 hours, 40 μl of Alamar Blue solution (0.5 mM K3Fe(CN)6, 0.5 mM KaFe(CN)6, 0.15 mM Resazurin and 100 mM Phosphate Buffer) was added to the wells, incubated for 4 hours at 37° C. and 5% CO2 RFU's (Relative Fluorescence Units) (ex. 540 nm., em. 590 nm.) were measured in a flurorescence plate reader.

KDR (h) (VEGFR2) = KDR (h) (VEGFR2) (Homo sapiens, UniProt P35968); assay: KDR (VEGFR2) (enzymatic assay), TR-FRET; format: biochemical
Procedure, shortened: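 Low-ATP (3 μM) TR-FRET kinase assay using 500 nM Btn-Flt3 peptide and 150 ng/ml enzyme, run 2 h at room temperature with 6 mM MnCl2 and 0.1 mM Na3VO4. Signal from Eu-anti-P-Tyr/SA-XL-665 is recorded in RFU.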

Sequence of Ba/F3-KDR-transfected cells (P35968 whole entry, change not shown): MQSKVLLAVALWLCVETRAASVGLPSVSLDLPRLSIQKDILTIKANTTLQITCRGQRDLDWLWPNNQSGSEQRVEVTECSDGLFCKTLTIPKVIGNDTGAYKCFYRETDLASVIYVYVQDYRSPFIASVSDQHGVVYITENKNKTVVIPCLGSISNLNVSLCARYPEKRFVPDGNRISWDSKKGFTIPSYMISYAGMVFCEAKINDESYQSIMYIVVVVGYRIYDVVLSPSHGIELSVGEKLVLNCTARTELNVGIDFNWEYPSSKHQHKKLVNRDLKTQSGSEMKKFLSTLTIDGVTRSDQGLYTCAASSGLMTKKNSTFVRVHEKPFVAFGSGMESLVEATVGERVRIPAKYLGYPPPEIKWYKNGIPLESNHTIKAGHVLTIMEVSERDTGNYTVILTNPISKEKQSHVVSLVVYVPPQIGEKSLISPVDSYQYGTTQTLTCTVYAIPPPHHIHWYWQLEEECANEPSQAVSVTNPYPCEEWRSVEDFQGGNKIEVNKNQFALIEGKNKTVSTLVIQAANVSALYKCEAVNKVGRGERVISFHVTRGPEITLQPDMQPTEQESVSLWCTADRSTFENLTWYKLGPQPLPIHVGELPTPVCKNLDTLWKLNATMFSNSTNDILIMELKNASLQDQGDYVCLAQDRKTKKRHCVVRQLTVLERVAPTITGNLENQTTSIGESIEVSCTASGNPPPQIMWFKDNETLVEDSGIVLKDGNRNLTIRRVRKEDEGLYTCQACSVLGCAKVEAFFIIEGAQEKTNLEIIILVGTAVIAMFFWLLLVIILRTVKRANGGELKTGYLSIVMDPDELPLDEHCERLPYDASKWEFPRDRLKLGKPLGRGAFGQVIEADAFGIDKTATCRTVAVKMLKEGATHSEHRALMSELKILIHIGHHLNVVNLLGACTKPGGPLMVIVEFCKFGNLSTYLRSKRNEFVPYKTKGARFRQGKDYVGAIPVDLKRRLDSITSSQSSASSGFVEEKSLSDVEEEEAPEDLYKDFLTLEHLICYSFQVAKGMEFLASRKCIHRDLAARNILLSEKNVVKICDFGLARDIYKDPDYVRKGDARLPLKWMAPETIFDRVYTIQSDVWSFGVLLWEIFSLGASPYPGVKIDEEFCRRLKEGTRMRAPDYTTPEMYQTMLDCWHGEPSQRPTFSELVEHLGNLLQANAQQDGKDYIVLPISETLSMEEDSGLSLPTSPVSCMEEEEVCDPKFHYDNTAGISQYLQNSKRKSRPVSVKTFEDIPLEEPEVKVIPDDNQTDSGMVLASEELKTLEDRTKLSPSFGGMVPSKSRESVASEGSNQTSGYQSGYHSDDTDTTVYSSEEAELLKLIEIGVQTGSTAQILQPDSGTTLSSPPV
Sequence of Ba/F3-FGFR3-transfected cells (P22607 whole entry, change not shown): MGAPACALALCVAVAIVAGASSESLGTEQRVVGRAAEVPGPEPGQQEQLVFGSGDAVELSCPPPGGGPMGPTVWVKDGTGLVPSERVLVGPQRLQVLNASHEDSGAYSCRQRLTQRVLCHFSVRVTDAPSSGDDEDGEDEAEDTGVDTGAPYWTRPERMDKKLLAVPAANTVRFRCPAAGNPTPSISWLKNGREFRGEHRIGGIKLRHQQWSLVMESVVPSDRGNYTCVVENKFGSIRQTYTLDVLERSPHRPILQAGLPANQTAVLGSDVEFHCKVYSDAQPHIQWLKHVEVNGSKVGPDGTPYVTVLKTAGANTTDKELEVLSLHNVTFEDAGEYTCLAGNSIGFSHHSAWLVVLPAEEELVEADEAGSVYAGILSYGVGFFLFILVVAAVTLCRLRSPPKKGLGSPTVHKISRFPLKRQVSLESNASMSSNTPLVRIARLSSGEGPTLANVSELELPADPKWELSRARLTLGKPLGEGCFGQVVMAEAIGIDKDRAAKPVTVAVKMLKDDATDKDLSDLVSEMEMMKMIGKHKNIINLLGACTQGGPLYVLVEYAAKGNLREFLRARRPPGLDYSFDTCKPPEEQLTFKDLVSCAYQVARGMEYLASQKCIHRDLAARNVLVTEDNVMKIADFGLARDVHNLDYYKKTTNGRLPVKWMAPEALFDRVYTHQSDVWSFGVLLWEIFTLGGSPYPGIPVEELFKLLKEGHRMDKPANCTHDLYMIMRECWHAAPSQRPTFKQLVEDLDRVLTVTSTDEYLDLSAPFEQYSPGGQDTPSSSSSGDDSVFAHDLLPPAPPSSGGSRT
Sequence of KDR (h) (VEGFR2) (P35968 20-1356): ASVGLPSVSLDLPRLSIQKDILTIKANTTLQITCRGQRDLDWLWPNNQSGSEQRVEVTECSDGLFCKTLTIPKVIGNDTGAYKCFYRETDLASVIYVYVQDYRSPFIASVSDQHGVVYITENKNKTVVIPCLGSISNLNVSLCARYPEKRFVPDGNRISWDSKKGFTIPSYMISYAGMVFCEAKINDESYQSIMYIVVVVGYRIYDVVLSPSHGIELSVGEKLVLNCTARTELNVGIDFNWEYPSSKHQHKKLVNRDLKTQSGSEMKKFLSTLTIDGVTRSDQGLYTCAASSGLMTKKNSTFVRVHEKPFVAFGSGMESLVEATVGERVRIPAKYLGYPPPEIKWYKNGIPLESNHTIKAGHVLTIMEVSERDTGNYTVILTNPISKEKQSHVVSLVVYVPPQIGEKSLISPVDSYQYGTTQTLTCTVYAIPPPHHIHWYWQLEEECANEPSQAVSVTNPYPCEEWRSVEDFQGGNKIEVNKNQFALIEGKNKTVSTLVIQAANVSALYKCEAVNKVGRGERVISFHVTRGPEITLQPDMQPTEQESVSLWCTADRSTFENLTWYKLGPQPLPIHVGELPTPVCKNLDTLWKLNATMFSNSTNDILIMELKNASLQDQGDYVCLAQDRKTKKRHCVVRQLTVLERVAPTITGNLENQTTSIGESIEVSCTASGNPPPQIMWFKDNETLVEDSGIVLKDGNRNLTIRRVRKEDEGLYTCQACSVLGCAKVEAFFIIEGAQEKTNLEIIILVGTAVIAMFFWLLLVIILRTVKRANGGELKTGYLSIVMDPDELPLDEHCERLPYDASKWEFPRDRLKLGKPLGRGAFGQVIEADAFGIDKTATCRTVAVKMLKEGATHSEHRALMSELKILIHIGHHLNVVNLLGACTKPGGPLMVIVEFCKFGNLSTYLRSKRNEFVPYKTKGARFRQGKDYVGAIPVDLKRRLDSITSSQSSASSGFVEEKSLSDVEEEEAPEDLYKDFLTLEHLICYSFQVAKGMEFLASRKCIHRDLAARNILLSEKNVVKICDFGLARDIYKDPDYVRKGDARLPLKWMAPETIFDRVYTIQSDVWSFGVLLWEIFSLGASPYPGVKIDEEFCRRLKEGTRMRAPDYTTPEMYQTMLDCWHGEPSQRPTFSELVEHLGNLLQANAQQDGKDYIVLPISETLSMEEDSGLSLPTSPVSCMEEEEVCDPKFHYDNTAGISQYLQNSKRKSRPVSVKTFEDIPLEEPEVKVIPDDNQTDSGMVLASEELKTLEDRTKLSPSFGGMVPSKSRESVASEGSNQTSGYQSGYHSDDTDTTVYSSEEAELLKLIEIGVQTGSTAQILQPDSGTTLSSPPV
Sequence of FGFR1 (h) (P11362 22-822): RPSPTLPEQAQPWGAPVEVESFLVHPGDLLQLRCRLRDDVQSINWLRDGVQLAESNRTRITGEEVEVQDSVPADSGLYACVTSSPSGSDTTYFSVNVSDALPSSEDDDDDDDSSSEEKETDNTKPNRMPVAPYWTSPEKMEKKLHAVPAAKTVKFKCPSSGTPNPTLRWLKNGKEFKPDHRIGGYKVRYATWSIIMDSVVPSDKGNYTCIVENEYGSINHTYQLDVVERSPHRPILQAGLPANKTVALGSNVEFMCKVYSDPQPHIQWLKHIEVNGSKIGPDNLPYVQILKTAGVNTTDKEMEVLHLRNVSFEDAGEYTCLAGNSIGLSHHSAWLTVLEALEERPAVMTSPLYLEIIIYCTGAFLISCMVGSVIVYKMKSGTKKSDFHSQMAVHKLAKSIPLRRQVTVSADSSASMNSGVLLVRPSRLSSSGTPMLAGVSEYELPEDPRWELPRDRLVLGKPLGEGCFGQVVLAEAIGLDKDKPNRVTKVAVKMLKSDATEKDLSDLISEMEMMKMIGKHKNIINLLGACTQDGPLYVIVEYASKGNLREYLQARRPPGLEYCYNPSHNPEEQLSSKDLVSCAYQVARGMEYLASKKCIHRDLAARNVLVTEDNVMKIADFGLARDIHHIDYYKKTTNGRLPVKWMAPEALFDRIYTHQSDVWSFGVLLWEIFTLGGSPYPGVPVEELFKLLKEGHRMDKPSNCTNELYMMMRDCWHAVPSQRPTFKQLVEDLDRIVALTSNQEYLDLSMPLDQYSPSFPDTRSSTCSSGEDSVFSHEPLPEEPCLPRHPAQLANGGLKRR

| SMILES | BAF3-FGFR 3 (MIN IL3) 96 well pIC50 [1] | BAF3-FGFR 3 (MIN IL3) 384 well pIC50 [1] | BAF3-KDR (MIN IL3) 384 well pIC50 ([2]; minus IL3, 384 well) | IC50 ([3]; plus IL3, 96 well) [µM] | IC50 (FGFR1 (h)) [µM] | IC50 [4] [µM] | IC50 (KDR (h) (VEGFR2)) [µM] | melting point [°C] | BAF3-KDR (MIN IL3) 384 well pIC50 ([2]; minus IL3) | IC50 ([3]; plus 10 ng/ml murine IL3) [µM] |
| --- | --- | --- | --- | --- | --- | --- | --- | --- | --- | --- |
| COc1cc(OC)cc(N(CC2CC2)c2ccc3ncc(N4CCOCC4)nc3c2)c1 [Compound 63] | <5 | <5 | <5 | > 10 | 0.537 | > 10 | 6.61 | 114 | – | – |
| COc1cc(OC)cc(N(CC2CC2)c2ccc3ncc(-c4ccnc(N5CCOCC5)c4)nc3c2)c1 [Compound 90] | 5.09 | – | – | > 10 | 0.589 | – | > 10 | 162 | – | – |
| COc1cc(OC)cc(N(CC2CC2)c2ccc3ncc(C(=O)Nc4cncn4C)nc3c2)c1 [Compound 27] | <5 | <5 | – | – | 0.269 | – | > 10 | 180 | <5 | > 10 |
| COc1cc(OC)cc(N(CC2CC2)c2ccc3ncc(-c4ccnc(N5CCN(C)CC5)c4)nc3c2)c1 [Compound 37] | 5.77 | ~5.26 | <5 | ~4.68 | 0.0302 | – | 1.38 | 125 | – | – |
| COc1cc(OC)cc(N(CC2CC2)c2ccc3ncc(-c4nnc(C)o4)nc3c2)c1 [Compound 85] | 5.06 | <5 | <5 | > 10 | 0.302 | – | 8.32 | 134 | – | – |
| COc1cc(OC)cc(N(CC2CC2)c2ccc3ncc(N4CCN(C)CC4)nc3c2)c1 [Compound 64] | 5.02 | <5 | <5 | > 10 | 0.437 | – | 5.5 | 92 | – | – |
| COc1cc(OC)cc(N(CC2CC2)c2ccc3ncc(-c4ccc5[nH]ccc5c4)nc3c2)c1 [Compound 86] | 5.4 | <5 | <5 | > 10 | 0.513 | – | > 10 | 181 | – | – |
| COc1cc(OC)cc(N(CC2CC2)c2ccc3ncc(C(=O)N4CCC4)nc3c2)c1 [Compound 93] | <5 | <5 | – | – | > 10 | – | > 10 | 176 | <5 | > 10 |
| COc1cc(OC)cc(N(CC2CC2)c2ccc3ncc(C#Cc4cncn4C)nc3c2)c1 [Compound 22] | 5.04 | <5.52 | <5 | > 10 | 0.0282 | – | 1.66 | 166 | – | – |
